Results published in US20230293544A1, “METHODS, DOSAGE REGIMENS, AND COMPOSITIONS FOR TREATING HIDRADENITIS” (PFIZER INC., priority 2022, published 2023).
Several values for one entry are separate records, joined by “and”; a condition that tells them apart may be missing. Identical values can stand only once.

Assays:
[1] = system: human patients with moderate to severe hidradenitis suppurativa (HS); experiment: Phase 2A double-blind, parallel group study of efficacy vs placebo in hidradenitis suppurativa; format: in vivo
Description: This study provided data on efficacy, safety, tolerability, and pharmacokinetics of the therapeutic agents being examined in the oral treatment of moderate to severe HS. […] This included an up-to-6-week Screening Period, a 16-week Dosing Period and a 4-week Follow-up Period. The study enrolled a total of approximately 192 participants (expected to provide approximately 156 completers). Following the screening period, participants who meet eligibility criteria at the baseline visit were randomly assigned to receive 1 of 6 treatments. One oral dose level of each therapeutic agent, one of which was [(1S)-2,2-difluorocyclo-propyl][(1R,5S)-3-{2-[(1-methyl-1H-pyrazol-4-yl)amino]pyrimidin-4-yl}-3,8-diazabicyclo[3.2.1]oct-8-yl]methanone (45 mg QD), or matching placebo in a 3:1 ratio was investigated. For analysis, placebo groups were combined to yield final therapeutic agent:placebo ratio of 1:1:1:1 for each therapeutic agent and pooled placebo. No more than 30% of enrolled participants were inadequate anti-TNF responders. Participants were stratified according to whether they were an inadequate anti-TNF responder or not.
Additionally, no more than 20% of enrolled participants entered the study on a background of concomitant oral antibiotic therapy for treatment of HS; the dosing regimen (dose and frequency) must have been stable for at least 8 weeks (56 days) prior to the baseline (Day 1) visit and remained stable throughout study participation. Antibiotics taken on an “as needed” (PRN) basis were not considered a stable dose. Participants were stratified according to whether they were on a background of concomitant antibiotic therapy or not. The chronic toxicology package for each asset supported the planned study treatment duration of 16 weeks. Hidradenitis suppurative clinical response, the primary endpoint used, is defined as: […]
at least a 50% reduction in the total abscess and inflammatory nodule (AN) count relative to baseline, and no increase in abscess count, and no increase in draining fistula count.
The above Examples were a phase 2A double-blind, parallel group study assessing the efficacy of PF-06700841, a dual inhibitor of human tyrosine kinase 2 (TYK2) and Janus kinase 1 (JAK1), compared to Placebo in human patients with moderate to severe hidradenitis suppurativa (HS).
This was a randomized, double-blind, parallel-group multi-center study that enrolled approximately 192 participants with moderate to severe HS (with approximately 156 completers). Participants were randomized to PF-06700841 (along with two other treatments studied contemporaneously) and matching placebo in a 3:1 ratio. Each randomized participant was followed for a 16-week dosing period and a 4-week follow-up period. For analysis, placebo groups were combined to yield a 1:1:1:1 ratio for each treatment and pooled placebo. No more than 30% participants were enrolled with inadequate anti-TNF response and no more that 20% of the participants were on background antibiotic therapy, and stratified randomization strategy was adopted for this study. Efficacy data from all randomized participants until week 16 are in the scope of this report.
The primary objective of the study was to evaluate the efficacy and safety of PF-06700841 vs placebo in participants with HS. The primary efficacy endpoint was percentage of participants with HiSCR response (50% reduction from baseline in abscess and inflammatory nodule (AN) count, with no increase in abscess and draining fistula count from baseline) at week 16. […]

[2] = system: human patients with moderate to severe hidradenitis suppurativa (HS); experiment: Safety and tolerability in the phase 2A HS study (TEAEs, vital signs, laboratory abnormalities); format: in vivo
Experimental: The safety and tolerability of PF-06700841 over time was assessed using incidence of treatment-emergent adverse events (TEAEs), vital signs, incidence of specific clinical laboratory abnormalities including but not limited to hemoglobin, neutrophils, platelets, lymphocytes, lipids, eGFR, liver function tests (LFTs) and CPK.
All participants who received at least one dose of randomized study medication and have a baseline are included in the full analysis set (FAS), the population for the efficacy analysis. The safety analysis set (SAS) includes all participants who received at least one dose of investigational product. The HiSCR response data at week 16 comparing active treatment group and placebo group was to be analyzed using the Cochran Mantel Hanzel (CMH) test with Minimum Risk (MR) weight strategy after treating missing data as non-responders, adjusting for the stratification factor of prior anti-TNF failure status. Due to very small number of participants with concomitant use of antibiotics status at baseline in some subgroups, this was not included as stratum factor in the model. Hochberg's step-up procedure was employed to address any multiplicity arising from the analysis of 3 different treatments within the same study and overall familywise error rate was controlled at 0.1 level. All the continuous secondary endpoints were analyzed using ANCOVA model, where missing observation were imputed using multiple imputation (MI) method.

[3] = Population PK analysis in the phase 2A HS study; format: in vivo, human; details: preliminary population PK analysis
Experimental: Blood was collected to obtain the PK samples at pre-dose, Weeks 1, 2, 4, 6, 8, and 16, and at 0.5-, 1-, 2-, and 4-hours post-dose on Week 8. The available data was analyzed using population PK modeling.

[4] = system: patients with moderate to severe HS; details: cited from earlier work

Cn1cc(Nc2nccc(N3C[C@H]4CC[C@@H](C3)N4C(=O)[C@@H]3CC3(F)F)n2)cn1 [PF-06700841, [(1S)-2,2-difluorocyclo-propyl][(1R,5S)-3-{2-[(1-methyl-1H-pyrazol-4-yl)amino]pyrimidin-4-yl}-3,8-diazabicyclo[3.2.1]oct-8-yl]methanone]
Hazard ratio for time to first flare ([1]; Cox proportional model, vs placebo): 0.4
Difference from placebo in Skin Pain NRS30 response rate at week 16 ([1]; PGA-Skin Pain NRS at worst, participants with baseline score 3, LOCF): 6.5%
Probability of flare, Kaplan Meier plot of time to first flare (FIG. 5) ([1]; at 16 weeks, FAS, versus placebo): lowest probability of flare at 16 weeks
HiSCR response rate at week 16 among Hurley Stage II participants ([1]; baseline Hurley Stage II, week 16): 59.4%
HiSCR response rate at week 16 among Hurley Stage III participants ([1]; baseline Hurley Stage III, week 16): 40%
More participants compared to placebo achieving total AN count of 0, 1 or 2 at week 16 ([1]; difference from placebo, week 16): 15.6%
Difference from placebo (δ) in percentage of participants experiencing at least one flare by week 16 ([1]; flare = at least 25% increase in AN count with minimum increase of 2 relative to baseline): −22.3%
Percentage of Participant Achieving HISCR Response at Week 16, Overall Response n/N (%) ([1]; overall population, FAS, NRI, week 16, 45 mg QD oral): 51.9% and 27/52 (51.9) %
Difference from Placebo in percent change from baseline at week 16 for the IHS4 score ([1]; week 16): −14.6%
HiSCR response over time, plot (FIG. 2) ([1]; week 16, versus placebo): highest response at week 16
Safety and tolerability ([2]; 16-week dosing): generally safe and well tolerated
Deaths or cases of herpes zoster/simplex in the study ([2]; in vivo): no deaths or cases of herpes zoster/simplex
Severity of the majority of treatment-emergent adverse events (TEAEs) ([2]; in vivo): mild and moderate
Exposures in HS compared to healthy or other patient populations [3]: expected exposures in HS appear to be achieved

adalimumab
Rank-ordered secondary outcomes (lesions, pain, modified Sartorius score) vs placebo ([4]; Week 12, PIONEER II only): significantly greater improvement than the placebo groups
Clinical response rate (HiSCR) at Week 12, PIONEER I ([4]; adalimumab weekly, PIONEER I, Week 12): 41.8%
Clinical response rate (HiSCR) at Week 12, PIONEER II ([4]; adalimumab weekly, PIONEER II, Week 12): 58.9%
